The target of test [1] is PIM-1 (Homo sapiens (Human), UniProt P11309). The test can be described thus: PIM-1 Enzyme Assay. It counts as biochemical. On the procedure:
The amount of radiolabeled product is then measured by liquid scintillation counting. The final buffer conditions were as follows: 20 mM K^+MOPS, pH 7.4, 10 mM MgCl2, 0.005% Tween-20, 1 mM DTT. […] Incubations were carried out for 60 min at 22° C. and quenched with 75 μL of 200 mM H3PO4, filtered through a Whatman P81 plate and washed (1×200 μL and 5×100 μL ) with 200 mM H3PO4. Liquid scintillation cocktail (50 μL ) was then added per well, and the plate was counted for 30 s/well using a TopCount NXT.
One-μL aliquots of these were then transferred to the assay mixtures above to give a final concentration of DMSO of 2%. […] For each plate, percent of control (POC) values were calculated for each well. IC50's were estimated from the POC's using a standard 4-parameter logistic model. The IC50 is defined as the concentration of inhibitor at which the POC equals 50 for the fitted curve.

In test [2] the target is GST-tagged recombinant full-length human PIM-2 (Homo sapiens (Human), UniProt Q9P1W9). The test can be described thus: PIM-2 Enzyme Assay.
Where [3] appears, read: read-out: PIM-2 IC50, 4 μM ATP, […] PIM-2.
Setting [4] is: read-out: PIM-2 IC50, 4 μM ATP, […] PIM-2, dihydrochloride.
Setting [5] is: PIM-2 IC50 (nM), 4 μM ATP, […] PIM-2.

Broadly, the IC50 is the midpoint of a concentration-inhibition curve.

Structures can show the parent of a compound that is named as a salt. Where two headings read alike, the source gives them in different places.

Chain of GST-tagged recombinant full-length human PIM-2 (Q9P1W9 whole entry): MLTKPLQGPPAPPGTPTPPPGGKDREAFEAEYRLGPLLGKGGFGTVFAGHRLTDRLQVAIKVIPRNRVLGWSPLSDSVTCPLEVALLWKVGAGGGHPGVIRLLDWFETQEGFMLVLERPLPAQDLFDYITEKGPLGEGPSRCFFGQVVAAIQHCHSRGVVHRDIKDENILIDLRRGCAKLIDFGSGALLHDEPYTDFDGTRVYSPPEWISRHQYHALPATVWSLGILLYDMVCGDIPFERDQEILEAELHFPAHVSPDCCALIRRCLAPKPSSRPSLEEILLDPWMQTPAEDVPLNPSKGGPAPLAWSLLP
Chain of PIM-1 (P11309 whole entry, species assumed): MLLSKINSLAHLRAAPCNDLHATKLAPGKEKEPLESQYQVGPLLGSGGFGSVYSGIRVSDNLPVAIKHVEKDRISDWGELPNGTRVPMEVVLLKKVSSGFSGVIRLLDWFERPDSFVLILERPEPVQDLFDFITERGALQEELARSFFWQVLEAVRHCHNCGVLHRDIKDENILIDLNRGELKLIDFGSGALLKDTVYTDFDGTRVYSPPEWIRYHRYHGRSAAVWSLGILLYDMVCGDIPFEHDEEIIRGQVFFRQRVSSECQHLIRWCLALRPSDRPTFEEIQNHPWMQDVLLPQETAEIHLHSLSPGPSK

In the case of `F[C@@H]1CNCC[C@@H]1Oc1cccc2ccc(-c3nnc4ccc(Br)cn34)nc12` (relative stereo) [Example 78, 2-(6-bromo-[1,2,4]triazolo[4,3-a]pyridin-3-yl)-8-((cis)-3-fluoropiperidin-4-yloxy)quinoline dihydrochloride], the half-inhibitory concentration (IC50) in test [1] (35 μM ATP, 0.25 nM PIM-1) worked out at 8 nM; in test [2] (read-out: PIM-2 IC50) it was 1280 nM.
Turning to `F[C@@H]1CNCC[C@@H]1Oc1cccc2ccc(-c3nnc4ccc(C5CC5)cn34)nc12` (relative stereo) [Example 80, 2-(6-cyclopropyl-[1,2,4]triazolo[4,3-a]pyridin-3-yl)-8-((cis)-3-fluoropiperidin-4-yloxy)quinoline dihydrochloride], the IC50 turned out to be 2 nM in test [1] (35 μM ATP, 0.25 nM PIM-1) and 1160 nM in test [2] (setting [3]).
Turning to `F[C@@H]1CNCC[C@@H]1Oc1cccc2ccc(-c3nnc4ccc(-c5ccccc5)cn34)nc12` (relative stereo) [Example 82, 8-((cis)-3-fluoropiperidin-4-yloxy)-2-(6-phenyl-[1,2,4]triazolo[4,3-a]pyridin-3-yl)quinoline dihydrochloride], the IC50 in test [1] worked out at 3 nM; in test [2] (setting [3]), 1040 nM.
Turning to `F[C@@H]1CCNCC[C@H]1Oc1cccc2ccc(-c3nnc4ccc(C5CC5)cn34)nc12` (relative stereo) [Example 98, 2-(6-cyclopropyl-[1,2,4]triazolo[4,3-a]pyridin-3-yl)-8-((trans)-5-fluoroazepan-4-yloxy)quinoline dihydrochloride], the IC50 in test [1] (35 μM ATP, 0.25 nM PIM-1) amounted to 0.7 nM; in test [2] (setting [3]) it was 661 nM.
On the same counts, the results for `N#Cc1ccc2nnc(-c3ccc4cccc(O[C@@H]5CCNCC[C@H]5F)c4n3)n2c1` (relative stereo) [Example 101, 3-(8-((trans)-5-fluoroazepan-4-yloxy)quinolin-2-yl)-[1,2,4]triazolo[4,3-a]pyridine-6-carbonitrile dihydrochloride] are 13 nM and 1000 nM.
In the case of `Fc1ccc2nnc(-c3ccc4cccc(O[C@@H]5CCNCC[C@H]5F)c4n3)n2c1` (relative stereo) [Example 102, 2-(6-fluoro-[1,2,4]triazolo[4,3-a]pyridin-3-yl)-8-((trans)-5-fluoroazepan-4-yloxy)quinoline dihydrochloride], the results for the half-inhibitory concentration (IC50) in test [1] and in test [2] (setting [3]) were 4.9 nM and 440 nM, respectively.
As to `CN1CC[C@@H](F)[C@H](Oc2cccc3ccc(-c4nnc5ccccn45)nc23)CC1` (relative stereo) [Example 118, 2-([1,2,4]triazolo[4,3-a]pyridin-3-yl)-8-((trans)-5-fluoro-1-methylazepan-4-yloxy)quinoline], the half-maximal inhibitory concentration (IC50) is 3 nM in test [1] (35 μM ATP, 0.25 nM PIM-1) and 330 nM in test [2] (setting [3]).
As for `FC1CNCCC1Oc1cccc2ccc(-c3nnc4ccccn34)nc12` (single isomer, unassigned) [Example 94, 2-([1,2,4]triazolo[4,3-a]pyridin-3-yl)-8-((cis)-3-fluoropiperidin-4-yloxy)quinoline dihydrochloride], the figures for the IC50 in test [1] (dihydrochloride) and in test [2] (setting [4]) were 19.4 nM and 1000 nM, respectively.
Take `FC1CNCCC1Oc1cccc2ccc(-c3nnc4ccccn34)nc12` (single isomer, unassigned) [Example 95, 2-([1,2,4]triazolo[4,3-a]pyridin-3-yl)-8-((cis)-3-fluoropiperidin-4-yloxy)quinoline dihydrochloride]: the IC50 was 9.8 nM in test [1] (dihydrochloride) and 482 nM in test [2] (setting [4]).
Turning to `FC1CNCCC1Oc1cccc2ccc(-c3nnc4ccccn34)nc12` (single isomer, unassigned) [Example 96, 2-([1,2,4]triazolo[4,3-a]pyridin-3-yl)-8-((trans)-3-fluoropiperidin-4-yloxy)quinoline dihydrochloride], the concentration for half-maximal inhibition (IC50) turned out to be 10.8 nM in test [1] (dihydrochloride) and 1000 nM in test [2] (setting [4]).
On the same counts, the results for `FC1CNCCC1Oc1cccc2ccc(-c3nnc4ccccn34)nc12` (single isomer, unassigned) [Example 97, 2-([1,2,4]triazolo[4,3-a]pyridin-3-yl)-8-((trans)-3-fluoropiperidin-4-yloxy)quinoline dihydrochloride] are 49 nM and 1000 nM.
Consider `CN(C)CC(C)(C)COc1cccc2ccc(-c3nnc4ccccn34)nc12` [Example 21, 3-(2-([1,2,4]triazolo[4,3-a]pyridin-3-yl)quinolin-8-yloxy)-N,N,2,2-tetramethylpropan-1-amine], for which the IC50 in test [2] (setting [3]) worked out at 1350 nM.
Take `CC(C)(C)COc1cccc2ccc(-c3nnc4ccccn34)nc12` [Example 23, 2-([1,2,4]triazolo[4,3-a]pyridin-3-yl)-8-(neopentyloxy)quinoline]: in test [2] (setting [3]), the half-inhibitory concentration (IC50) amounted to 144 nM.
With `CC(C)(CN)COc1cc(F)cc2ccc(-c3nnc4ccccn34)nc12` [Example 39, 3-(2-([1,2,4]triazolo[4,3-a]pyridin-3-yl)-6-fluoroquinolin-8-yloxy)-2,2-dimethylpropan-1-amine], the IC50 in test [1] (35 μM ATP, 0.25 nM PIM-1) came out at 0.55 nM; in test [2] (setting [3]) it was 26 nM.
On to `NCC(F)(F)COc1cccc2ccc(-c3nnc4ccccn34)nc12` [Example 41, 3-(2-([1,2,4]triazolo[4,3-a]pyridin-3-yl)quinolin-8-yloxy)-2,2-difluoropropan-1-amine], for which the IC50 in test [2] (setting [3]) came out at 182 nM.
As for `N[C@H]1CC[C@@H](Oc2cccc3ccc(-c4nnc5ccccn45)nc23)CC1` [Example 42, (cis)-4-(2-([1,2,4]triazolo[4,3-a]pyridin-3-yl)quinolin-8-yloxy)cyclohexanamine], in test [2] (setting [5]), the IC50 was determined as 22 nM.
`CC(C)(CN)COc1ccc(F)c2ccc(-c3nnc4ccccn34)nc12` [Example 43, 3-(2-([1,2,4]triazolo[4,3-a]pyridin-3-yl)-5-fluoroquinolin-8-yloxy)-2,2-dimethylpropan-1-amine]: the half-inhibitory concentration (IC50) is 139 nM in test [1] (35 μM ATP, 0.25 nM PIM-1) and 10000 nM in test [2] (setting [3]).
On the same counts, the results for `c1cncc(COc2cccc3ccc(-c4nnc5ccccn45)nc23)c1` [Example 44, 2-([1,2,4]triazolo[4,3-a]pyridin-3-yl)-8-(pyridin-3-ylmethoxy)quinoline] are 63 nM and 7470 nM.
Take `c1cc(OCc2ccncc2)c2nc(-c3nnc4ccccn34)ccc2c1` [Example 45, 2-([1,2,4]triazolo[4,3-a]pyridin-3-yl)-8-(pyridin-4-ylmethoxy)quinoline]: the half-inhibitory concentration (IC50) in test [1] (35 μM ATP, 0.25 nM PIM-1) worked out at 26.9 nM; in test [2] (setting [3]), 1730 nM.
Regarding `FC1CCNCCC1Oc1cccc2ccc(-c3nnc4ccccn34)nc12` (centres unmarked) [Example 46, 2-([1,2,4]triazolo[4,3-a]pyridin-3-yl)-8-(5-fluoroazepan-4-yloxy)quinoline], the IC50 in test [1] (35 μM ATP, 0.25 nM PIM-1) came to 1 nM; in test [2] (setting [5]), 96 nM.
Consider `COC[C@@H]1CC(Oc2cccc3ccc(-c4nnc5ccccn45)nc23)CCN1` (some centres unmarked) [Example 57], for which the concentration for half-maximal inhibition (IC50) was found to be 4 nM in test [1] (35 μM ATP, 0.25 nM PIM-1) and 484 nM in test [2] (setting [3]).
Regarding `CC(C)(CN)COc1c(Br)ccc2ccc(-c3nnc4ccccn34)nc12` [Example 58, 3-(2-([1,2,4]triazolo[4,3-a]pyridin-3-yl)-7-bromoquinolin-8-yloxy)-2,2-dimethylpropan-1-amine dihydrochloride], the figures for the concentration for half-maximal inhibition (IC50) in test [1] and in test [2] (setting [3]) were 10 nM and 204 nM, respectively.
As for `Fc1ccn2c(-c3ccc4cccc(OC5CCNCC5F)c4n3)nnc2c1` (stereo not drawn) [Example 60, cis-2-(7-fluoro-[1,2,4]triazolo[4,3-a]pyridin-3-yl)-8-3-fluoropiperidin-4-yloxy)quinoline], the 50% inhibitory concentration (IC50) in test [1] (35 μM ATP, 0.25 nM PIM-1) was determined as 26 nM; in test [2] (setting [3]), 1760 nM.
Take `CC(C)(CN)COc1cccc2ccc(-c3nnc4ccc(Br)cn34)nc12` [Example 63, 3-(2-(6-bromo-[1,2,4]triazolo[4,3-a]pyridin-3-yl)quinolin-8-yloxy)-2,2-dimethylpropan-1-amine dihydrochloride]: the IC50 stood at 0.65 nM in test [1] and 101 nM in test [2] (read-out: PIM-2 IC50).
Take `CC(C)(CN)COc1cccc2ccc(-c3nnc4ccc(-c5ccccc5)cn34)nc12` [Example 65, 2,2-Dimethyl-3-(2-(6-phenyl-[1,2,4]triazolo[4,3-a]pyridin-3-yl)quinolin-8-yloxy)propan-1-amine dihydrochloride]: the 50% inhibitory concentration (IC50) was 0.8 nM in test [1] (35 μM ATP, 0.25 nM PIM-1) and 174 nM in test [2] (setting [3]).
Consider `c1cc(OCC2(CC3CC3)CCNCC2)c2nc(-c3nnc4ccccn34)ccc2c1` [Example 69, 2-([1,2,4]triazolo[4,3-a]pyridin-3-yl)-8-44-(cyclopropylmethyl)piperidin-4-yl)methoxy)quinoline dihydrochloride], for which the IC50 in test [1] amounted to 1.6 nM; in test [2] (setting [3]), 95 nM.
On the same counts, the results for `CC(C)C1(COc2cccc3ccc(-c4nnc5ccccn45)nc23)CCNCC1` [Example 70, 2-([1,2,4]triazolo[4,3-a]pyridin-3-yl)-8-((4-isopropylpiperidin-4-yl)methoxy)quinoline dihydrochloride] are 0.75 nM and 67 nM.
For the compound `CCC(CC)(CO)COc1cccc2ccc(-c3nnc4ccccn34)nc12` [Example 131], the IC50 in test [2] (setting [3]) came to 1000 nM.
Turning to `CC(C)(CCN)COc1cccc2ccc(-c3nnc4ccccn34)nc12` [Example 132, 4-(2-([1,2,4]triazolo[4,3-a]pyridin-3-yl)quinolin-8-yloxy)-3,3-dimethylbutan-1-amine], the 50% inhibitory concentration (IC50) in test [2] (setting [3]) turned out to be 76.5 nM.
Take `CC(C)(CNCC(F)(F)F)COc1cccc2ccc(-c3nnc4ccccn34)nc12` [Example 136, 3-(2-([1,2,4]triazolo[4,3-a]pyridin-3-yl)quinolin-8-yloxy)-2,2-dimethyl-N-(2,2,2-trifluoroethyl)propan-1-amine]: the IC50 in test [2] (setting [3]) turned out to be 362 nM.

Values taken from patent publication US8575145B2, “Triazolopyridine compounds as PIM kinase inhibitors” (Array BioPharma Inc., priority 2008, dated 2013).
